Assay results: patent US10772917B2, “Pancreatic endocrine progenitor cell therapies for the treatment of obesity and type 2 diabetes (T2D)” (THE UNIVERSITY OF BRITISH COLUMBIA, priority 2015, dated 2020)

Experiments:
HFD-fed mice [1] = assay: Body weight, epididymal fat pad weight and leptin in 60% fat diet mice given antidiabetic drug with or without cell transplant (Example 6); assay type: in vivo, mouse (SCID-beige); conditions: for circulating leptin levels: 60% fat diet, drug combined with cell transplant vs respective sham controls on the same drug, 20 weeks post-transplant
Description: Male SCID-beige mice (C.B-Igh-1b/GbmsTac-Prkdcscid-LystbgN7, 8-10 weeks old; Taconic™) were maintained on a 12 hr light/dark cycle throughout the study. All experiments were approved by the UBC Animal Care Committee and carried out in accordance with the Canadian Council on Animal Care guidelines.
(§1) In the second cohort, mice were placed on either the 10% fat control diet (D12450K; n=8) for the duration of the study of 60% fat diet (D12492; n=64) for 6 weeks, followed by one of the following treatment regimens for the remainder of the study (n=16 per group): (1) 60% fat diet with no drug (D12492), (2) 60% fat diet containing rosiglitazone (18 mg/kg diet or ˜3 mg/kg BW per day; Cayman Chemical™; Research Diets™ custom diet formulation D08121002), (3) 60% fat diet containing sitagliptin (4 g/kg diet or ˜750 mg/kg BW per day; sitagliptin phosphate monohydrate, BioVision™; Research Diets™ custom diet formulation D08062502R), or (4) 60% fat diet (D12492) and metformin (1,1-dimethylbiguanide hydrochloride) in drinking water (1.25 mg/ml or ˜250 mg/kg BW per day).
The procedure used for transplantation of macro-encapsulated pancreatic progenitor cells was as follows. Similar transplantation of macro-encapsulated pancreatic endocrine precursor cells or insulin-producing cells was described in Rezania et al. 2014, Pagliucca et al. 2014 and Agulnick A. D. et al. 2015. All mice were anaesthetized with inhalable isoflurane and transplant recipients received ˜5×10^6 hESC-derived pancreatic progenitor cells subcutaneously (s.c.) within a 20 1 TheraCyte™ macroencapsulation device (TheraCyte Inc.™, Laguna Hills, Calif.) on the right flank, as previously described (Bruin et al., 2013). Sham mice received the same surgical procedure, but no macroencapsulation device was implanted. In the first cohort, mice were randomly assigned to receive either a cell transplant (Tx, n=7 per diet) or sham surgery (sham, n=4 per diet) after 7 weeks of LFD or HFD feeding. […]
All metabolic analyses were performed in conscious, restrained mice and blood samples were collected via the saphenous vein. BW and blood glucose levels were assessed regularly throughout each study following a 4-hr morning fast. […]
Glucose tolerance tests (GTTs) were performed following a 6-hour morning fast and administration of glucose by oral gavage or intraperitoneal (i.p.) injection (2 glucose/kg BW, 30% solution; Vétoquinol™, Lavaltrie, QC). Glucose-stimulated human C-peptide secretion from engrafted cells was assessed following an overnight fast and an i.p. injection of glucose (2 g/kg). […] Blood glucose levels were measured using a handheld glucometer (Lifescan™; Burnaby, Canada). […]

HFD-fed mice [2] = assay: Fasting blood glucose and oral glucose tolerance test in 60% fat diet mice given antidiabetic drug with or without cell transplant (Example 6); assay type: in vivo, mouse (SCID-beige); conditions: for glucose tolerance (oral glucose tolerance test): HFD-fed mice, cell therapy combined with the drug
Procedure: as §1
(§2) The procedure used for transplantation of macro-encapsulated pancreatic progenitor cells was as follows. Similar transplantation of macro-encapsulated pancreatic endocrine precursor cells or insulin-producing cells was described in Rezania et al. 2014, Pagliucca et al. 2014 and Agulnick A. D. et al. 2015. All mice were anaesthetized with inhalable isoflurane and transplant recipients received ˜5×10^6 hESC-derived pancreatic progenitor cells subcutaneously (s.c.) within a 20 1 TheraCyte™ macroencapsulation device (TheraCyte Inc.™, Laguna Hills, Calif.) on the right flank, as previously described (Bruin et al., 2013). Sham mice received the same surgical procedure, but no macroencapsulation device was implanted. In the first cohort, mice were randomly assigned to receive either a cell transplant (Tx, n=7 per diet) or sham surgery (sham, n=4 per diet) after 7 weeks of LFD or HFD feeding. In the second cohort, HFD-fed mice (+/−drug treatment) received either a transplant (n=8 per group) or sham surgery (n=8 per group) 1 week after administration of the antidiabetic drugs. LFD controls all received sham surgery.
All metabolic analyses were performed in conscious, restrained mice and blood samples were collected via the saphenous vein. BW and blood glucose levels were assessed regularly throughout each study following a 4-hr morning fast. For all other metabolic tests, blood was collected after fasting (time 0) and at the indicated time points following administration of various secretagogues.
(§3) Glucose tolerance tests (GTTs) were performed following a 6-hour morning fast and administration of glucose by oral gavage or intraperitoneal (i.p.) injection (2 glucose/kg BW, 30% solution; Vétoquinol™, Lavaltrie, QC). Glucose-stimulated human C-peptide secretion from engrafted cells was assessed following an overnight fast and an i.p. injection of glucose (2 g/kg). […] Blood glucose levels were measured using a handheld glucometer (Lifescan™; Burnaby, Canada). Mouse hormone and lipid profiles were assessed in plasma using the following kits: leptin (Mouse Leptin ELISA, Crystal ChemInc.™, Downers Grove, Ill.), insulin (Ultrasensitive Mouse Insulin ELISA, Alpco Diagnostics™, Salem, N.H.), C-peptide (Mouse C-peptide ELISA, Alpco Diagnostics™), triglycerides (Serum Triglyceride kit, Sigma-Aldrich™), free fatty acids (NEFA-HR(2) kit, Wako Chemical™, Richmond, Va.) and cholesterol (Cholesterol E™ kit, Wako Chemical™). Hormone secretion from engrafted hESC-derived cells was assessed by measuring plasma human C-peptide (C-peptide ELISA, 80-CPTHU-E01.1; Alpco Diagnostics™) and human insulin and glucagon levels (K15160C-2; Meso Scale Discovery™, Gaithersburg, Md.). […]

HFD-fed mice [3] = assay: Mouse and human C-peptide after intraperitoneal glucose challenge (Example 6); assay type: in vivo, mouse (SCID-beige); conditions: drug plus cell transplant vs respective sham controls; for reduction of fasting mouse C-peptide levels: 4 weeks post-transplant; for fasting mouse C-peptide levels: 16 weeks post-transplant
Description: as §2
as §3, with “g/kg). Insulin tolerance tests (ITTs) were performed following a 4-hour morning fast and administration of human synthetic insulin (0.7 IU/kg body weight; Novolin Ge™ Toronto, Novo Nordisk™, Mississaugua, Canada).” for “g/kg).”, “Md.). Hemoglobin A1c (HbA1c) levels were measured with a Siemens DCA 200 Vantage Analyzer™ (Siemens Healthcare Diagnostics™, Tarrytown, N.Y.) from whole blood collected from the saphenous vein with EDTA as an anticoagulant.” for “Md.).”

[4] = under the conditions tested; cited from earlier work
pancreatic regeneration = conditions: ductal ligation model; cited from earlier work
[5] = 12 weeks post-transplant, drug with the cell therapy

CN(C)C(=N)NC(=N)N.Cl [metformin, 1,1-dimethylbiguanide hydrochloride]
circulating leptin levels (HFD-fed mice [1]): significantly reduced | glucose tolerance (oral glucose tolerance test) (HFD-fed mice [2]; 12 weeks post-transplant): significantly improved | reduction of fasting mouse C-peptide levels (HFD-fed mice [3]): not yet evident | fasting mouse C-peptide levels (HFD-fed mice [3]): significantly reduced

CN(CCOc1ccc(CC2SC(=O)NC2=O)cc1)c1ccccn1 (stereo not shown) [rosiglitazone]
circulating leptin levels (HFD-fed mice [1]): no effect

insulin: anti-diabetic medicine examined earlier for short term effect (Bruin et al. 2013)
short term effect [4]: without significant effect

exendin-4: anti-diabetic medicine examined earlier for short term effect (Bruin et al. 2013)
short term effect [4]: without significant effect

C=CC[C@@H]1/C=C(\C)C[C@H](C)C[C@H](OC)[C@H]2O[C@@](O)(C(=O)C(=O)N3CCCC[C@H]3C(=O)O[C@H](/C(C)=C/[C@@H]3CC[C@@H](O)[C@H](OC)C3)[C@H](C)[C@@H](O)CC1=O)[C@H](C)C[C@@H]2OC [tacrolimus]
pancreatic regeneration (pancreatic regeneration): block pancreatic regeneration

N[C@@H](CC(=O)N1CCn2c(nnc2C(F)(F)F)C1)Cc1cc(F)c(F)cc1F [sitagliptin, sitagliptin phosphate monohydrate]
circulating leptin levels (HFD-fed mice [1]): significantly reduced | weight loss (HFD-fed mice [1]; cells transplanted in combination with the drug, compared with other groups): the most weight loss was observed | glucose tolerance (oral glucose tolerance test) (HFD-fed mice [2]; 12 weeks post-transplant): significantly improved | glycemic control during an oral glucose challenge compared with LFD controls (HFD-fed mice [2]; [5]): indistinguishable | peak glucose level at 15 minutes post-gavage compared with LFD controls (HFD-fed mice [2]; [5]): marginally higher | glucose tolerance (HFD-fed mice [2]; drug on its own, without cell transplant): mild reduction in glucose tolerance | reduction of fasting mouse C-peptide levels (HFD-fed mice [3]): not yet evident | fasting mouse C-peptide levels (HFD-fed mice [3]): significantly reduced
